# Results: patent US20060093617A1, “Peptides for inducing a CTL and/or HTL response to hepatitis C virus” (Innogenetics, N.V., priority 2004, published 2006)
# Where a SMILES comes first, the peptide text is derived from it.
# Tests used:
# [1] = target: T1, DRB1*0101 (Homo sapiens, UniProt P01903+P01911, A100R/D57E/F55L/F60I/F76Y/I96L/L162R/M171V/P40L/Q125E/R42F/V115G/Y59C); assay: Competition binding assay using soluble HLA class II
# T1 construct: endogenous in cells; host or cells: cell lysate
# [2] = target: T2, HLA-Cw06 (Homo sapiens, UniProt P10321, A176E/A330V/C350S/L171W/L180W/L218V/M285V/M309V/M331V/N104K/P208H/Q277E/Q291P/R121W/R243W/S101N/S123Y/S297R/T329A/T363A/V319A/V328M); assay: HLA class I competition cell-based binding assay
# T2 construct: endogenous in cells
Structure (SMILES),IC50 [1] [nM],Ki [2] [nM]
CC(C)C[C@H](NC(=O)[C@H](Cc1c[nH]cn1)NC(=O)[C@H](C)NC(=O)[C@@H](NC(=O)[C@H](CCC(N)=O)NC(=O)[C@H](Cc1ccccc1)NC(=O)[C@@H](NC(=O)[C@H](CCC(N)=O)NC(=O)[C@@H]1CCCN1)[C@@H](C)O)C(C)C)C(=O)N[C@@H](Cc1c[nH]cn1)C(=O)N[C@@H](C)C(=O)N1CCC[C@H]1C(=O)N[C@H](C(=O)NCC(=O)N[C@@H](CO)C(=O)O)[C@@H](C)O,22,
CC[C@H](C)[C@H](NC(=O)[C@H](CC(C)C)NC(=O)[C@H](CC(=O)O)NC(=O)[C@H](C)NC(=O)[C@@H](N)CC(=O)O)C(=O)N[C@@H](CCC(=O)O)C(=O)N[C@@H](C)C(=O)N[C@@H](CC(N)=O)C(=O)N[C@@H](CC(C)C)C(=O)N[C@@H](CC(C)C)C(=O)N[C@@H](Cc1c[nH]c2ccccc12)C(=O)N[C@@H](CCCNC(=N)N)C(=O)N[C@@H](CCC(N)=O)C(=O)N[C@@H](CCC(=O)O)C(=O)N[C@@H](CCSC)C(=O)O,574,
CC(C)[C@H](NC(=O)[C@H](CCCNC(=N)N)NC(=O)[C@H](CCC(N)=O)NC(=O)CNC(=O)[C@@H]1CCCN1C(=O)[C@H](CO)NC(=O)[C@H](Cc1ccc(O)cc1)NC(=O)[C@H](CCC(N)=O)NC(=O)[C@H](Cc1ccccc1)NC(=O)CNC(=O)[C@H](Cc1ccc(O)cc1)NC(=O)[C@H](CO)NC(=O)[C@H](CO)NC(=O)CN)C(=O)N[C@@H](CCC(=O)O)C(=O)O,11,
CC[C@H](C)[C@H](NC(=O)[C@H](CCC(N)=O)NC(=O)CNC(=O)CNC(=O)CNC(=O)[C@@H]1CCCN1C(=O)[C@H](Cc1ccccc1)NC(=O)[C@H](CCCCN)NC(=O)[C@@H](N)C(C)C)C(=O)N[C@H](C(=O)O)C(C)C (H-VKFPGGGQIV-OH; N-terminus and C-terminus assumed),,417
CC(C)C[C@H](NC(=O)[C@@H](NC(=O)[C@H](CCC(N)=O)NC(=O)[C@H](CC(C)C)NC(=O)[C@H](CCCNC(=N)N)NC(=O)[C@H](CC(=O)O)NC(=O)[C@H](Cc1ccccc1)NC(=O)[C@@H](NC(=O)[C@@H](N)C(C)C)[C@@H](C)O)C(C)C)C(=O)O,,1130
CC(C)C[C@H](NC(=O)[C@H](C)NC(=O)CNC(=O)[C@H](C)NC(=O)[C@@H](NC(=O)CNC(=O)[C@H](C)NC(=O)CNC(=O)[C@H](Cc1ccc(O)cc1)NC(=O)CNC(=O)[C@H](C)NC(=O)[C@@H](N)CC(C)C)C(C)C)C(=O)N[C@H](C(=O)N[C@@H](C)C(=O)N[C@@H](Cc1ccccc1)C(=O)O)C(C)C,137,
CC(C)C[C@H](NC(=O)[C@H](CCCNC(=N)N)NC(=O)[C@H](C)NC(=O)CN)C(=O)N[C@H](C(=O)N[C@H](C(=O)N[C@@H](CC(C)C)C(=O)N[C@@H](C)C(=O)N[C@H](C(=O)N[C@@H](C)C(=O)N[C@H](C(=O)N1CCC[C@H]1C(=O)N1CCC[C@H]1C(=O)NCC(=O)N[C@@H](CO)C(=O)O)[C@@H](C)O)[C@@H](C)O)C(C)C)C(C)C (H-GARLVVLATATPPGS-OH; N-terminus and C-terminus assumed),173,
CC(C)C[C@H](NC(=O)[C@H](CCC(N)=O)NC(=O)[C@H](CO)NC(=O)[C@H](C)N)C(=O)N[C@@H](CO)C(=O)N[C@@H](C)C(=O)N1CCC[C@H]1C(=O)N[C@@H](CO)C(=O)N[C@@H](CC(C)C)C(=O)N[C@@H](CCCCN)C(=O)N[C@@H](C)C(=O)N[C@H](C(=O)N[C@@H](CS)C(=O)N[C@H](C(=O)N[C@H](C(=O)O)[C@@H](C)O)[C@@H](C)O)[C@@H](C)O,329,
CC(C)C[C@H](NC(=O)[C@@H](NC(=O)[C@H](C)NC(=O)[C@H](C)NC(=O)[C@@H](NC(=O)[C@H](CO)NC(=O)[C@@H]1CCCN1C(=O)[C@H](CC(N)=O)NC(=O)[C@H](CC(C)C)NC(=O)[C@@H](NC(=O)[C@H](CC(C)C)NC(=O)[C@@H](NC(=O)[C@H](CCCCN)NC(=O)[C@H](Cc1ccc(O)cc1)NC(=O)CN)C(C)C)C(C)C)C(C)C)[C@@H](C)O)C(=O)O,8.4,
CC(C)[C@H](NC(=O)CNC(=O)[C@H](CCCNC(=N)N)NC(=O)[C@@H](NC(=O)[C@H](CS)NC(=O)[C@@H](NC(=O)[C@H](C)NC(=O)[C@H](C)NC(=O)[C@@H](N)CCCNC(=N)N)C(C)C)[C@@H](C)O)C(=O)N[C@@H](C)C(=O)N[C@@H](CCCCN)C(=O)N[C@@H](C)C(=O)N[C@H](C(=O)N[C@@H](CC(=O)O)C(=O)N[C@@H](Cc1ccccc1)C(=O)O)C(C)C,619,
CC(C)[C@H](NC(=O)CNC(=O)[C@H](CO)NC(=O)[C@H](C)NC(=O)[C@H](CCCNC(=N)N)NC(=O)[C@H](CS)NC(=O)[C@H](CCCNC(=N)N)NC(=O)[C@H](CCCNC(=N)N)NC(=O)[C@@H](N)Cc1ccc(O)cc1)C(=O)O,,634
CC[C@H](C)[C@H](NC(=O)[C@H](CC(N)=O)NC(=O)CNC(=O)[C@H](CC(C)C)NC(=O)[C@H](Cc1c[nH]c2ccccc12)NC(=O)[C@H](CO)NC(=O)[C@H](CC(N)=O)NC(=O)[C@@H](N)C(C)C)C(=O)N[C@H](C(=O)N[C@@H](CCSC)C(=O)N[C@@H](Cc1ccc(O)cc1)C(=O)N[C@@H](C)C(=O)N1CCC[C@H]1C(=O)N[C@H](C(=O)N[C@@H](CC(C)C)C(=O)O)[C@@H](C)O)[C@@H](C)CC,1.42,
CC(C)C[C@H](NC(=O)[C@H](CCCNC(=N)N)NC(=O)[C@@H](N)Cc1ccc(O)cc1)C(=O)NCC(=O)N[C@@H](C)C(=O)N[C@H](C(=O)N[C@@H](CCC(N)=O)C(=O)N[C@@H](CC(N)=O)C(=O)N[C@@H](CCC(=O)O)C(=O)N[C@H](C(=O)O)C(C)C)C(C)C,,217
CC[C@H](C)[C@H](NC(=O)[C@H](CC(C)C)NC(=O)[C@H](CCCNC(=N)N)NC(=O)[C@H](C)NC(=O)[C@@H]1CCCN1C(=O)[C@H](CCCCN)NC(=O)[C@@H](N)CCCNC(=N)N)C(=O)N[C@H](C(=O)N[C@@H](Cc1ccccc1)C(=O)O)C(C)C (H-RKPARLIVF-OH; N-terminus and C-terminus assumed),,8280
CC(C)C[C@H](NC(=O)[C@@H](NC(=O)[C@H](CCCCN)NC(=O)[C@H](Cc1ccc(O)cc1)NC(=O)CNC(=O)[C@H](CCC(N)=O)NC(=O)[C@H](C)NC(=O)[C@H](C)NC(=O)[C@@H](N)Cc1ccc(O)cc1)C(C)C)C(=O)N[C@H](C(=O)O)C(C)C (H-YAAQGYKVLV-OH; N-terminus and C-terminus assumed),,9210
CSCC[C@H](NC(=O)[C@H](CC(C)C)NC(=O)[C@H](C)NC(=O)[C@H](CC(=O)O)NC(=O)[C@@H](NC(=O)[C@H](C)NC(=O)[C@@H](NC(=O)[C@@H](NC(=O)[C@@H](NC(=O)[C@@H](NC(=O)[C@@H](N)CC(=O)O)C(C)C)C(C)C)C(C)C)C(C)C)[C@@H](C)O)C(=O)N[C@H](C(=O)NCC(=O)N[C@@H](Cc1ccc(O)cc1)C(=O)N[C@H](C(=O)O)[C@@H](C)O)[C@@H](C)O,456,
CC(C)C[C@H](NC(=O)CNC(=O)[C@H](CCCNC(=N)N)NC(=O)[C@H](Cc1ccc(O)cc1)NC(=O)[C@H](Cc1ccc(O)cc1)NC(=O)[C@H](C)NC(=O)[C@@H](NC(=O)[C@H](C)NC(=O)[C@@H](N)CC(N)=O)C(C)C)C(=O)O,,10800
CC[C@H](C)[C@H](NC(=O)[C@@H](NC(=O)[C@@H](N)CCC(=O)O)C(C)C)C(=O)N[C@@H](CCCCN)C(=O)NCC(=O)NCC(=O)N[C@@H](CCCNC(=N)N)C(=O)N[C@@H](Cc1c[nH]cn1)C(=O)N[C@@H](CC(C)C)C(=O)O,,12800
CC(C)[C@H](NC(=O)CNC(=O)[C@H](CCCNC(=N)N)NC(=O)[C@@H](NC(=O)[C@H](CS)NC(=O)[C@@H](NC(=O)[C@H](C)NC(=O)[C@H](C)NC(=O)[C@H](CCCNC(=N)N)NC(=O)[C@@H](N)Cc1ccccc1)C(C)C)[C@@H](C)O)C(=O)O (H-FRAAVCTRGV-OH; N-terminus and C-terminus assumed),,486
CC(C)C[C@H](NC(=O)[C@H](C)NC(=O)[C@H](CCCNC(=N)N)NC(=O)[C@H](C)N)C(=O)N[C@@H](C)C(=O)N[C@@H](Cc1c[nH]cn1)C(=O)NCC(=O)N[C@H](C(=O)N[C@@H](CCCNC(=N)N)C(=O)N[C@H](C(=O)O)C(C)C)C(C)C (H-ARALAHGVRV-OH; N-terminus and C-terminus assumed),,9880
CC[C@H](C)[C@H](NC(=O)[C@H](CC(C)C)NC(=O)[C@H](CCCNC(=N)N)NC(=O)[C@H](C)NC(=O)[C@@H]1CCCN1C(=O)[C@H](CCCCN)NC(=O)[C@H](CCCNC(=N)N)NC(=O)CN)C(=O)N[C@H](C(=O)O)C(C)C (H-GRKPARLIV-OH; N-terminus and C-terminus assumed),,2040
CC[C@H](C)[C@H](NC(=O)[C@H](CC(C)C)NC(=O)[C@H](Cc1c[nH]cn1)NC(=O)[C@H](CCCNC(=N)N)NC(=O)CNC(=O)CNC(=O)[C@H](CCCCN)NC(=O)[C@@H](NC(=O)[C@@H](N)C(C)C)[C@@H](C)CC)C(=O)N[C@@H](Cc1ccccc1)C(=O)O,,17500
CC(C)C[C@H](NC(=O)[C@@H](NC(=O)[C@H](CCCCN)NC(=O)[C@H](Cc1ccc(O)cc1)NC(=O)CNC(=O)[C@H](CCC(N)=O)NC(=O)[C@H](C)NC(=O)[C@H](C)N)C(C)C)C(=O)N[C@H](C(=O)O)C(C)C (H-AAQGYKVLV-OH; N-terminus and C-terminus assumed),,6320
CC[C@H](C)[C@H](N)C(=O)N[C@@H](CCCNC(=N)N)C(=O)N[C@@H](CO)C(=O)N[C@@H](CC(C)C)C(=O)N[C@H](C(=O)N[C@@H](CCC(=O)O)C(=O)N[C@@H](CCCNC(=N)N)C(=O)N[C@@H](CC(C)C)C(=O)N[C@@H](Cc1ccc(O)cc1)C(=O)N[C@H](C(=O)O)[C@@H](C)CC)[C@@H](C)O (H-IRSLTERLYI-OH; N-terminus and C-terminus assumed),,6220
CC(C)[C@H](NC(=O)[C@H](CCCNC(=N)N)NC(=O)[C@H](CCC(N)=O)NC(=O)CNC(=O)[C@@H]1CCCN1C(=O)[C@H](CO)NC(=O)[C@H](Cc1ccc(O)cc1)NC(=O)[C@H](CCC(N)=O)NC(=O)[C@@H](N)Cc1ccccc1)C(=O)O (H-FQYSPGQRV-OH),,387
CC[C@H](C)[C@H](NC(=O)CNC(=O)[C@H](CCCNC(=N)N)NC(=O)[C@H](CCCNC(=N)N)NC(=O)CN)C(=O)N[C@@H](Cc1ccc(O)cc1)C(=O)N[C@@H](CCCNC(=N)N)C(=O)N[C@@H](Cc1ccccc1)C(=O)N[C@H](C(=O)O)C(C)C,,576
